Measured values taken from US10925876B2, “Methods for using triazolo-pyrazinyl soluble guanylate cyclase activators in fibrotic disorders” (Merck Sharp & Dohme Corp., priority 2016, dated 2021).

Molecular target: T1, sGC α1/β1 heterodimer (Homo sapiens, UniProt Q02108+Q02153)
T1 construct: expressed in transfected cells
T1 sequence (Q02108 1-690): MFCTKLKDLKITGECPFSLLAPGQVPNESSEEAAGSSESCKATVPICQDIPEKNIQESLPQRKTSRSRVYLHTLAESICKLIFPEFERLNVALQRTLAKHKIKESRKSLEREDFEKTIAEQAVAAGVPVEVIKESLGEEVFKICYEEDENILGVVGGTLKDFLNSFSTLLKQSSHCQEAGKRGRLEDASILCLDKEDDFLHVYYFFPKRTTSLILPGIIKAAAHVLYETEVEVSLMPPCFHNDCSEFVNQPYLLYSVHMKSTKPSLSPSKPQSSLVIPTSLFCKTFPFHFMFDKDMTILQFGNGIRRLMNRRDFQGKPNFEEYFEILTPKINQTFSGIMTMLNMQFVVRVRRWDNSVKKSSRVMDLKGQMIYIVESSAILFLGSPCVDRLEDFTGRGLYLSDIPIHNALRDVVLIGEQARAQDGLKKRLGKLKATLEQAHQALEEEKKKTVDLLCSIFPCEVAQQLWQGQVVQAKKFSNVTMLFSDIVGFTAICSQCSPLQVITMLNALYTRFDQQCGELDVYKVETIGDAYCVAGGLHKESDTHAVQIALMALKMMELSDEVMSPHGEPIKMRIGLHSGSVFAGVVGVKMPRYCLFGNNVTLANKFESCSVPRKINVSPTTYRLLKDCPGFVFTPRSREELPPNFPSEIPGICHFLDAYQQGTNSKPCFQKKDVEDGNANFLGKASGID
T1 sequence (Q02153 1-619): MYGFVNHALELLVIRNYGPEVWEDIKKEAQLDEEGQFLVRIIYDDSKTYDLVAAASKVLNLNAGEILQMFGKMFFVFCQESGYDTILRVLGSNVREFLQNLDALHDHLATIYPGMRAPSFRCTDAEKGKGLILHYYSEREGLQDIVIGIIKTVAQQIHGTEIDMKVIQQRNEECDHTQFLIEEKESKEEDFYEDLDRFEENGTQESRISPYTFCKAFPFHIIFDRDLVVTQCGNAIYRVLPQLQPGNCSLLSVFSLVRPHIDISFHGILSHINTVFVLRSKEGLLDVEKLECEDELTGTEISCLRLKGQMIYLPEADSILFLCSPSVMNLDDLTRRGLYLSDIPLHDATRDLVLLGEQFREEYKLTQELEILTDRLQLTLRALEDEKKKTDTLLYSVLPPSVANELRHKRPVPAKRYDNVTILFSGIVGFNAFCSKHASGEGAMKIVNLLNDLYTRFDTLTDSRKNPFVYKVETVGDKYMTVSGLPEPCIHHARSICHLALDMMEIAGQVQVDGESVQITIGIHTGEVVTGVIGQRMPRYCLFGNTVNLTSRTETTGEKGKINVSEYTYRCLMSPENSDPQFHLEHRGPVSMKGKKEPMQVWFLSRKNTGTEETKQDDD
Assay: Cell-Based sGC Functional Assay (CASA Assay), cGMP generation in CHO-K1/sGC cells
Settings: maximum cGMP production of Compound A set to 100% activation, read-out: % Act. (percent activation relative to Compound A)
From the text: sGC is a heme-containing enzyme that converts GTP to secondary messenger cGMP. Increases in cGMP levels affect several physiological processes including vasorelaxation through multiple downstream pathways. […] Heme-dependent activators (HDAs) preferentially activate sGC containing a ferrous heme group. To determine the effect of sGC activators on enzyme activity, the CASA assay was developed to monitor the generation of cGMP in a cell line that stably expresses the heterodimeric sGC protein.
A CHO-K1 cell line stably expressing the sGC α1/β1 heterodimer was generated using a standard transfection protocol. CHO-K1 cells were transfected with plasmids pIREShyghsGCα1 and pIRESneo-hsGCβ1 simultaneously using FUGENE reagent. Clones that stably express both subunits were selected with hygromycin and neomycin for ˜2 weeks. Clone #7 was chosen for the assay and was designated CHO-K1/sGC. CHO-K1/sGC cells were maintained in F-K12 medium containing 10% heat-inactivated Fetal Bovine Serum (FBS), 100 μg/mL penicillin/streptomycin, 0.5 mg/mL hygromycin and 0.25 mg/mL G418. The cells were then cryopreserved in LN2. On the day of the assay, cells thawed and resuspended in EBSS Assay Buffer (Sigma, E3024) supplemented with 5 mM MgCl2, 10 mM HEPES (4-(2-hydroxyethyl)piperazine-1-ethanesulfonic acid) and 0.05% BSA (bovine serum albumin) (EAB) and cell density was then adjusted to 4×10^5/mL with EAB. IBMX (3-isobutyl-1-methylxanthin, 0.5 mM) was added to inhibit degradation of cGMP. Compounds were diluted from DMSO stock solutions and added to the assay at a final DMSO concentration of 2.5%. Cells were incubated with compounds in the presence and absence of 1 μM of Diethylenetriamine/nitric oxide adduct (DETA-NO; Sigma, 17018) for 1 hr at 37° C. At the end of the incubation period, the reaction was terminated and the cells were lysed with the detection reagents from Cisbio Kits. The level of intracellular cGMP was determined using an HTRF-based assay kit (CisBio, 62GM2PEC), which detects the displacement of a fluorescence labeled cGMP from its specific antibody. The cGMP produced by test compounds was directly compared to the maximum cGMP production (this value was set to equal 100% activation.) of the published sGC-HDA Compound A:
[drawing 298] (Example 1 in WO 2010/065275, published Jun. 10, 2010). The test compounds' activities were then expressed as a percentage of Compound A, the standard in every experiment. This percent activation was calculated either in the presence or absence of DETA-NO which was then plotted. IP and maximum fold induction was derived using ADA analysis software for 4P fit.

SMILES | Emax
CC1(c2ccc(C(F)F)cn2)C(=O)Nc2nc(-c3cn4ncnc4c(CCCC(F)(F)F)n3)nc(O)c21 (centres unmarked) [Example 181B, 4-hydroxy-5-(5-(difluoromethyl)pyridin-2-yl)-5-methyl-2-(8-(4,4,4-trifluorobutyl)-[1,2,4]triazolo[1,5-a]pyrazin-6-yl)-5H-pyrrolo[2,3-d]pyrimidin-6(7H)-one] | 55%
CC1(c2ccc(F)c(F)c2)C(=O)Nc2nc(-c3cn4ncnc4c(CCC(F)(F)C(F)(F)F)n3)nc(O)c21 (centres unmarked) [Example 169B, 5-(3,4-Difluorophenyl)-4-hydroxy-5-methyl-2-(8-(3,3,4,4,4-pentafluorobutyl)-[1,2,4]triazolo[1,5-a]pyrazin-6-yl)-5,7-dihydro-6H-pyrrolo[2,3-d]pyrimidin-6-one] | 116%
Cc1ccc(C2(C)C(=O)Nc3nc(-c4cn5ncnc5c(CCC(F)(F)C(F)(F)F)n4)nc(O)c32)nc1 (centres unmarked) [Example 130B, 4-hydroxy-5-methyl-5-(5-methylpyridin-2-yl)-2-(8-(3,3,4,4,4-pentafluorobutyl)-[1,2,4]triazolo[1,5-a]pyrazin-6-yl)-5H-pyrrolo[2,3-d]pyrimidin-6(7H)-one] | 109%
Nc1nc(-c2cn3ncnc3c(CCC(F)(F)C(F)(F)F)n2)nc2c1C(c1ccc(F)c(F)c1)(C1CC1)C(=O)N2 (centres unmarked) [Example 6A, 4-amino-5-cyclopropyl-5-(3,4-difluorophenyl)-2-(8-(3,3,4,4,4-pentafluorobutyl)-[1,2,4]triazolo[1,5-a]pyrazin-6-yl)-5H-pyrrolo[2,3-d]pyrimidin-6(7H)-one] | 140%
CC1(c2cccc(F)c2)C(=O)Nc2nc(-c3cn4ncnc4c(CCC(F)(F)C(F)(F)F)n3)nc(N)c21 (centres unmarked) [Example 14B, 4-amino-5-(3-fluorophenyl)-5-methyl-2-(8-(3,3,4,4,4-pentafluorobutyl)-[1,2,4]triazolo[1,5-a]pyrazin-6-yl)-5H-pyrrolo[2,3-d]pyrimidin-6(7H)-one] | 90%
CCCc1nc(-c2nc(O)c3c(n2)NC(=O)C3(c2ccc(F)c(F)c2)C2CC2)cn2ncnc12 (centres unmarked) [Example 167A, 5-cyclopropyl-5-(3,4-difluorophenyl)-4-hydroxy-2-(8-propyl-[1,2,4]triazolo[1,5-a]pyrazin-6-yl)-5H-pyrrolo[2,3-d]pyrimidin-6(7H)-one] | 70%
CC1(c2ccc(Cl)c(F)c2)C(=O)Nc2nc(-c3cn4ncnc4c(CCC(F)(F)F)n3)nc(N)c21 (centres unmarked) [Example 75B, 4-amino-5-(4-chloro-3-fluorophenyl)-5-methyl-2-(8-(3,3,3-trifluoropropyl)-[1,2,4]triazolo[1,5-a]pyrazin-6-yl)-5H-pyrrolo[2,3-d]pyrimidin-6(7H)-one] | 136%
Nc1nc(-c2cn3ncnc3c(CCC(F)(F)F)n2)nc2c1C(c1ccc(Cl)cn1)(C1CC1)C(=O)N2 (centres unmarked) [Example 82A, 4-amino-5-(5-chloropyridin-2-yl)-5-cyclopropyl-2-(8-(3,3,3-trifluoropropyl)-[1,2,4]triazolo[1,5-a]pyrazin-6-yl)-5H-pyrrolo[2,3-d]pyrimidin-6(7H)-one] | 125%
CCCc1nc(-c2nc(N)c3c(n2)NC(=O)C3(c2ccc(F)cn2)C2CC2)cn2ncnc12 (centres unmarked) [Example 59A, 4-amino-5-cyclopropyl-5-(5-fluoropyridin-2-yl)-2-(8-propyl-[1,2,4]triazolo[1,5-a]pyrazin-6-yl)-5H-pyrrolo[2,3-d]pyrimidin-6(7H)-one] | 119%
O=C1Nc2nc(-c3cn4ncnc4c(CCC(F)(F)C(F)(F)F)n3)nc(O)c2C1(c1ccc(F)c(F)c1)C1CC1 (centres unmarked) [Example 123A, 5-cyclopropyl-5-(3,4-difluorophenyl)-4-hydroxy-2-(8-(3,3,4,4,4-pentafluorobutyl)-[1,2,4]triazolo[1,5-a]pyrazin-6-yl)-5H-pyrrolo[2,3-b]pyrimidin-6(7H)-one] | 78%
CC1(c2ccc(O)cn2)C(=O)Nc2nc(-c3cn4ncnc4c(CCCC(F)(F)F)n3)nc(N)c21 (centres unmarked) [Example 111A, 4-amino-5-(5-hydroxypyridin-2-yl)-5-methyl-2-(8-(4,4,4-trifluorobutyl)-[1,2,4]triazolo[1,5-a]pyrazin-6-yl)-5H-pyrrolo[2,3-d]pyrimidin-6(7H)-one] | 75%
